# In US20230085307A1, “PYRIDAZINONE COMPOUND AND HERBICIDE” (NISSAN CHEMICAL CORPORATION, priority 2019, published 2023):
# Tests used:
# barnyard grass [1] = assay: Test Example 3: herbicidal effect by foliage application, Wagner pot (Table 18, symbol H); type: in vivo, barnyard grass (Echinochloa crus-galli); conditions: 320 g/ha
# In short: (§1)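 Plants were sown in alluvial soil held under 0.1–0.5 cm standing water and grown 14 days in a greenhouse at 25–30 °C. An emulsifiable formulation, water-diluted to the set dose, was then sprayed onto the foliage, and effects were scored three weeks later using previously defined criteria.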
# Chinese sprangletop = assay: Test Example 3: herbicidal effect by foliage application, Wagner pot (Table 18, symbol D); type: in vivo, chinese sprangletop (Leptochloa chinensis); conditions: 320 g/ha
# In short: as §1
# rice flat sedge = assay: Test Example 3: herbicidal effect by foliage application, Wagner pot (Table 18, symbol E); type: in vivo, rice flat sedge (Cyperus iria); conditions: 320 g/ha
# In short: as §1
# southern crabgrass [2] = assay: Test Example 4: herbicidal effect by soil treatment (Table 19, symbol F); type: in vivo, southern crabgrass (Digitaria ciliaris); conditions: 320 g/ha
# In short: (§2)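 Step 1: sow seeds in sterilized diluvial soil, cover ~1.5 cm. Step 2: spray diluted emulsion onto soil surface at predetermined rate. Step 3: greenhouse, 25–30° C, three weeks. Step 4: grade effect on each plant by earlier criteria.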
# green foxtail [3] = assay: Test Example 4: herbicidal effect by soil treatment (Table 19, symbol G); type: in vivo, green foxtail (Setaria viridis); conditions: 320 g/ha
# In short: as §2
# barnyard grass [4] = assay: Test Example 4: herbicidal effect by soil treatment (Table 19, symbol H); type: in vivo, barnyard grass (Echinochloa crus-galli); conditions: 320 g/ha
# In short: as §2
# wild oat [5] = assay: Test Example 4: herbicidal effect by soil treatment (Table 19, symbol I); type: in vivo, wild oat (Avena fatua); conditions: 320 g/ha
# In short: as §2
# blackgrass [6] = assay: Test Example 4: herbicidal effect by soil treatment (Table 19, symbol J); type: in vivo, blackgrass (Alopecurus myosuroides); conditions: 320 g/ha
# In short: as §2
# Italian ryegrass [7] = assay: Test Example 4: herbicidal effect by soil treatment (Table 19, symbol K); type: in vivo, Italian ryegrass (Lolium multiflorum); conditions: 320 g/ha
# In short: as §2
# windgrass [8] = assay: Test Example 4: herbicidal effect by soil treatment (Table 19, symbol L); type: in vivo, windgrass (Apera spica-venti); conditions: 320 g/ha
# In short: as §2
# velvetleaf [9] = assay: Test Example 4: herbicidal effect by soil treatment (Table 19, symbol M); type: in vivo, velvetleaf (Abutilon theophrasti); conditions: 320 g/ha
# In short: as §2
# redroot pigweed [10] = assay: Test Example 4: herbicidal effect by soil treatment (Table 19, symbol N); type: in vivo, redroot pigweed (Amaranthus retroflexus); conditions: 320 g/ha
# In short: as §2
# lambsquarters [11] = assay: Test Example 4: herbicidal effect by soil treatment (Table 19, symbol O); type: in vivo, lambsquarters (Chenopodium album); conditions: 320 g/ha
# In short: as §2
# chickweed [12] = assay: Test Example 4: herbicidal effect by soil treatment (Table 19, symbol P); type: in vivo, common chickweed (Stellaria media); conditions: 320 g/ha
# In short: as §2
# persian speedwell [13] = assay: Test Example 4: herbicidal effect by soil treatment (Table 19, symbol R); type: in vivo, Persian speedwell (Veronica persica); conditions: 320 g/ha
# In short: as §2
# southern crabgrass [14] = assay: Test Example 5: herbicidal effect by foliage application, plastic box (Table 20, symbol F); type: in vivo, southern crabgrass (Digitaria ciliaris); conditions: foliage application, 320 g/ha, evaluated three weeks after application
# In short: (§3)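 Foliar spray test: emulsion formulation diluted in water to a set application rate, sprayed onto 14-day-old plants raised in diluvial soil at 25° C to 30° C under glass. Both herbicidal effect and crop effect rated visually three weeks later.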
# green foxtail [15] = assay: Test Example 5: herbicidal effect by foliage application, plastic box (Table 20, symbol G); type: in vivo, green foxtail (Setaria viridis); conditions: foliage application, 320 g/ha, evaluated three weeks after application
# In short: as §3
# barnyard grass [16] = assay: Test Example 5: herbicidal effect by foliage application, plastic box (Table 20, symbol H); type: in vivo, barnyard grass (Echinochloa crus-galli); conditions: foliage application, 320 g/ha, evaluated three weeks after application
# In short: as §3
# wild oat [17] = assay: Test Example 5: herbicidal effect by foliage application, plastic box (Table 20, symbol I); type: in vivo, wild oat (Avena fatua); conditions: foliage application, 320 g/ha, evaluated three weeks after application
# In short: as §3
# blackgrass [18] = assay: Test Example 5: herbicidal effect by foliage application, plastic box (Table 20, symbol J); type: in vivo, blackgrass (Alopecurus myosuroides); conditions: foliage application, 320 g/ha, evaluated three weeks after application
# In short: as §3
# Italian ryegrass [19] = assay: Test Example 5: herbicidal effect by foliage application, plastic box (Table 20, symbol K); type: in vivo, Italian ryegrass (Lolium multiflorum); conditions: foliage application, 320 g/ha, evaluated three weeks after application
# In short: as §3
# windgrass [20] = assay: Test Example 5: herbicidal effect by foliage application, plastic box (Table 20, symbol L); type: in vivo, windgrass (Apera spica-venti); conditions: foliage application, 320 g/ha, evaluated three weeks after application
# In short: as §3
# velvetleaf [21] = assay: Test Example 5: herbicidal effect by foliage application, plastic box (Table 20, symbol M); type: in vivo, velvetleaf (Abutilon theophrasti); conditions: foliage application, 320 g/ha, evaluated three weeks after application
# In short: as §3
# redroot pigweed [22] = assay: Test Example 5: herbicidal effect by foliage application, plastic box (Table 20, symbol N); type: in vivo, redroot pigweed (Amaranthus retroflexus); conditions: foliage application, 320 g/ha, evaluated three weeks after application
# In short: as §3
# lambsquarters [23] = assay: Test Example 5: herbicidal effect by foliage application, plastic box (Table 20, symbol O); type: in vivo, lambsquarters (Chenopodium album); conditions: foliage application, 320 g/ha, evaluated three weeks after application
# In short: as §3
# chickweed [24] = assay: Test Example 5: herbicidal effect by foliage application, plastic box (Table 20, symbol P); type: in vivo, common chickweed (Stellaria media); conditions: foliage application, 320 g/ha, evaluated three weeks after application
# In short: as §3
# persian speedwell [25] = assay: Test Example 5: herbicidal effect by foliage application, plastic box (Table 20, symbol R); type: in vivo, Persian speedwell (Veronica persica); conditions: foliage application, 320 g/ha, evaluated three weeks after application
# In short: as §3
SMILES,"herbicidal effect on H (barnyard grass), rating 0-5 (barnyard grass [1])","herbicidal effect on D (Chinese sprangletop), rating 0-5 (Chinese sprangletop)","herbicidal effect on E (rice flat sedge), rating 0-5 (rice flat sedge)","herbicidal effect rating, F: southern crabgrass (southern crabgrass [2])","herbicidal effect rating, G: green foxtail (green foxtail [3])","herbicidal effect rating, H: barnyard grass (barnyard grass [4])","herbicidal effect rating, I: wild oat (wild oat [5])","herbicidal effect rating, J: blackgrass (blackgrass [6])","herbicidal effect rating, K: Italian ryegrass (Italian ryegrass [7])","herbicidal effect rating, L: windgrass (windgrass [8])","herbicidal effect rating, M: velvetleaf (velvetleaf [9])","herbicidal effect rating, N: redroot pigweed (redroot pigweed [10])","herbicidal effect rating, O: lambsquarters (lambsquarters [11])","herbicidal effect rating, P: chickweed (chickweed [12])","herbicidal effect rating, R: persian speedwell (persian speedwell [13])",herbicidal effect on F: southern crabgrass (southern crabgrass [14]),herbicidal effect on G: green foxtail (green foxtail [15]),herbicidal effect on H: barnyard grass (barnyard grass [16]),herbicidal effect on I: wild oat (wild oat [17]),herbicidal effect on J: blackgrass (blackgrass [18]),further results
CON=C(C)COc1ccc(-c2sc3ccc(F)cc3c2-c2c(O)c(C)nn(C)c2=O)cc1 [2-069],5 (Herbicidal rate of 90% or more (almost completely withered)),4 (Herbicidal rate of 70% or more and less than 90%),5 (Herbicidal rate of 90% or more (almost completely withered)),5 (Herbicidal rate of 90% or more (almost completely withered)),5 (Herbicidal rate of 90% or more (almost completely withered)),5 (Herbicidal rate of 90% or more (almost completely withered)),0 (Herbicidal rate of 5% or less (almost no effect)),0 (Herbicidal rate of 5% or less (almost no effect)),5 (Herbicidal rate of 90% or more (almost completely withered)),0 (Herbicidal rate of 5% or less (almost no effect)),3 (Herbicidal rate of 40% or more and less than 70%),5 (Herbicidal rate of 90% or more (almost completely withered)),5 (Herbicidal rate of 90% or more (almost completely withered)),4 (Herbicidal rate of 70% or more and less than 90%),5 (Herbicidal rate of 90% or more (almost completely withered)),5 (Herbicidal rate of 90% or more (almost completely withered)),5 (Herbicidal rate of 90% or more (almost completely withered)),5 (Herbicidal rate of 90% or more (almost completely withered)),2 (Herbicidal rate of 20% or more and less than 40%),5 (Herbicidal rate of 90% or more (almost completely withered)),herbicidal effect on K: Italian ryegrass (Italian ryegrass [19]): 5 (Herbicidal rate of 90% or more (almost completely withered)); herbicidal effect on L: windgrass (windgrass [20]): 5 (Herbicidal rate of 90% or more (almost completely withered)); herbicidal effect on M: velvetleaf (velvetleaf [21]): 5 (Herbicidal rate of 90% or more (almost completely withered)); herbicidal effect on N: redroot pigweed (redroot pigweed [22]): 5 (Herbicidal rate of 90% or more (almost completely withered)); herbicidal effect on O: lambsquarters (lambsquarters [23]): 5 (Herbicidal rate of 90% or more (almost completely withered)); herbicidal effect on P: chickweed (chickweed [24]): 5 (Herbicidal rate of 90% or more (almost completely withered)); herbicidal effect on R: persian speedwell (persian speedwell [25]): 5 (Herbicidal rate of 90% or more (almost completely withered))
COc1ccc(-c2sc3ccc(F)cc3c2-c2c(O)c(C)nn(C)c2=O)cc1F [2-086],3 (Herbicidal rate of 40% or more and less than 70%),3 (Herbicidal rate of 40% or more and less than 70%),5 (Herbicidal rate of 90% or more (almost completely withered)),1 (Herbicidal rate of 5% or more and less than 20%),3 (Herbicidal rate of 40% or more and less than 70%),3 (Herbicidal rate of 40% or more and less than 70%),0 (Herbicidal rate of 5% or less (almost no effect)),0 (Herbicidal rate of 5% or less (almost no effect)),0 (Herbicidal rate of 5% or less (almost no effect)),0 (Herbicidal rate of 5% or less (almost no effect)),4 (Herbicidal rate of 70% or more and less than 90%),4 (Herbicidal rate of 70% or more and less than 90%),5 (Herbicidal rate of 90% or more (almost completely withered)),0 (Herbicidal rate of 5% or less (almost no effect)),5 (Herbicidal rate of 90% or more (almost completely withered)),0 (Herbicidal rate of 5% or less (almost no effect)),3 (Herbicidal rate of 40% or more and less than 70%),3 (Herbicidal rate of 40% or more and less than 70%),0 (Herbicidal rate of 5% or less (almost no effect)),0 (Herbicidal rate of 5% or less (almost no effect)),herbicidal effect on K: Italian ryegrass (Italian ryegrass [19]): 0 (Herbicidal rate of 5% or less (almost no effect)); herbicidal effect on L: windgrass (windgrass [20]): 0 (Herbicidal rate of 5% or less (almost no effect)); herbicidal effect on M: velvetleaf (velvetleaf [21]): 5 (Herbicidal rate of 90% or more (almost completely withered)); herbicidal effect on N: redroot pigweed (redroot pigweed [22]): 4 (Herbicidal rate of 70% or more and less than 90%); herbicidal effect on O: lambsquarters (lambsquarters [23]): 4 (Herbicidal rate of 70% or more and less than 90%); herbicidal effect on P: chickweed (chickweed [24]): 5 (Herbicidal rate of 90% or more (almost completely withered)); herbicidal effect on R: persian speedwell (persian speedwell [25]): 5 (Herbicidal rate of 90% or more (almost completely withered))
